In article PMC8586704 (Frontiers in Chemistry, 2021):
In brackets after ≈: the same amount, converted by molar mass. Read-outs that look alike come from different tables or passages of the source. Starred links: 1 amine or outer side, 2 acyl side, 3 side chain; linkers in the order of their positions; H or OH if unused. Non-standard residues stand in square brackets, D forms with d. Residues, ends and D or L forms follow the SMILES beside them. Groups on a side chain read outwards from the residue. X11 = COC(=O)[C@H](Cc1c[nH]cn1)NC(=O)[C@@H](C)C[C@@H](C(=O)[*:2])N(C)[*:1]; X3 = O=C(Cc1ccc(F)cc1)Oc1ccc(C[C@H](N[*:1])C(=O)[*:2])cc1[N+](=O)[O-]; Trp(1-(1,1-Me2-allyl)) = C=CC(C)(C)n1cc(C[C@H](N)C(=O)O)c2ccccc21; NMeGlu(4S-Me) = C[C@@H](C[C@@H](C(=O)[*:2])N(C)[*:1])C(=O)[*:3]; X6 = C[C@@H](C[C@@H](C(=O)[*:2])N(C)[*:1])C(=O)NNC(=O)c1ccncc1; X12 = C[C@@H](C[C@@H](C(=O)[*:2])N(C)[*:1])C(=O)NCc1ccccc1; Tyr(3-NO2) = N[C@@H](Cc1ccc(O)c([N+](=O)[O-])c1)C(=O)O; Gly(E-crotyl) = C/C=C/C[C@H](N)C(=O)O; NMeL = CN[C@@H](CC(C)C)C(=O)O

Legend:
[1] = tested on: A549; assay: Cytotoxicity assay (CCK-8); assay type: cell-based; conditions: Homo sapiens, lung cancer cell line
[2] = tested on: MCF-7; assay: cells; assay type: cell-based; conditions: Homo sapiens, MCF7; breast adenocarcinoma cell line
[3] = tested on: HCT116; assay: cells; assay type: cell-based; conditions: Homo sapiens, HCT-116; colon cancer cell line
[4] = tested on: L02; assay: cells; assay type: cell-based; conditions: normal human hepatic cell line
[5] = tested on: HeLa; assay: cells; assay type: cell-based; conditions: Homo sapiens, cervical carcinoma cell line
[6] = tested on: HepG2; assay: cells; assay type: cell-based; conditions: Homo sapiens, hepatocellular carcinoma cell line
[7] = tested on: Huvec-12; assay: Cytotoxicity assay (CCK-8); assay type: cell-based; conditions: normal human umbilical vein endothelial cell line
[8] = tested on: M. tuberculosis H37Rv; assay: Antitubercular activity assay, broth dilution, auto-luminescent strain; assay type: cell-based, Mycobacterium tuberculosis; conditions: Mycobacterium tuberculosis, H37RV
[9] = Day 3rd, read-out: MICs against H37Rv, Day 3rd
[10] = Day 7th, read-out: MICs against H37Rv, Day 7th
[11] = Day 14th, read-out: MICs against H37Rv, Day 14th

Compound	IC50 [1] [µM]	IC50 [2] [µM]	IC50 [3] [µM]	IC50 [4] [µM]	IC50 [5] [µM]	IC50 [6] [µM]	IC50 [7] [µM]	MIC [8, 9] [µM]	MIC [8, 10] [µM]	MIC [8, 11] [µM]	MIC ([8]; read-out: MICs against H37Rv, Day 3rd) [µM]	MIC ([8]; read-out: MICs against H37Rv, Day 7th) [µM]	MIC ([8]; read-out: MICs against H37Rv, Day 14th) [µM]
COc1cccc2c1C(=O)c1c(O)c3c(c(O)c1C2=O)C[C@@](O)(C(=O)CO)C[C@@H]3O[C@H]1C[C@H](N)[C@H](O)[C@H](C)O1 [doxorubicin, reference compound]	1.5	4	4	7.7	0.7	0.6	12	–	–	–	–	–	–
C=CC(C)(C)n1cc(C[C@@H]2NC(=O)[C@H](C/C=C/C)NC(=O)[C@H](CC(C)C)NC(=O)[C@H](C[C@H](C)C(=O)O)N(C)C(=O)[C@H](C)NC(=O)[C@H](Cc3ccc(OC(=O)Cc4ccc(F)cc4)c([N+](=O)[O-])c3)NC(=O)[C@H](CC(C)C)N(C)C2=O)c2ccccc21 [Compound 17, ilamycin NJL17] (cyclo(A[NMeGlu(4S-Me)]L[Gly(E-crotyl)][Trp(1-(1,1-Me2-allyl))][NMeL][X3]))	> 50	> 50	> 50	> 50	> 50	> 50	> 50	27.2 (≈ 32.1 µg/mL)	27.2 (≈ 32.1 µg/mL)	27.2 (≈ 32.1 µg/mL)	–	–	–
C=CC(C)(C)n1cc(C[C@@H]2NC(=O)[C@H](C/C=C/C)NC(=O)[C@H](CC(C)C)NC(=O)[C@H](C[C@H](C)C(=O)NNC(=O)c3ccncc3)N(C)C(=O)[C@H](C)NC(=O)[C@H](Cc3ccc(O)c([N+](=O)[O-])c3)NC(=O)[C@H](CC(C)C)N(C)C2=O)c2ccccc21 [Compound 13, ilamycin NJL13] (cyclo(A[X6]L[Gly(E-crotyl)][Trp(1-(1,1-Me2-allyl))][NMeL][Tyr(3-NO2)]))	> 50	> 50	> 50	> 50	> 50	> 50	> 50	–	–	–	27.6 (≈ 32.1 µg/mL)	27.6 (≈ 32.1 µg/mL)	27.6 (≈ 32.1 µg/mL)
C=CC(C)(C)n1cc(C[C@@H]2NC(=O)[C@H](C/C=C/C)NC(=O)[C@H](CC(C)C)NC(=O)[C@H](C[C@H](C)C(=O)NCc3ccccc3)N(C)C(=O)[C@H](C)NC(=O)[C@H](Cc3ccc(O)c([N+](=O)[O-])c3)NC(=O)[C@H](CC(C)C)N(C)C2=O)c2ccccc21 [Compound 9, ilamycin NJL9] (cyclo(A[X12]L[Gly(E-crotyl)][Trp(1-(1,1-Me2-allyl))][NMeL][Tyr(3-NO2)]))	> 50	> 50	> 50	> 50	> 50	> 50	> 50	3.5 (≈ 3.96 µg/mL)	3.5 (≈ 3.96 µg/mL)	3.5 (≈ 3.96 µg/mL)	–	–	–
C=CC(C)(C)n1cc(C[C@@H]2NC(=O)[C@H](C/C=C/C)NC(=O)[C@H](CC(C)C)NC(=O)[C@H](C[C@H](C)C(=O)N[C@@H](Cc3c[nH]cn3)C(=O)OC)N(C)C(=O)[C@H](C)NC(=O)[C@H](Cc3ccc(O)c([N+](=O)[O-])c3)NC(=O)[C@H](CC(C)C)N(C)C2=O)c2ccccc21 [Compound 5, ilamycin NJL5] (cyclo(A[X11]L[Gly(E-crotyl)][Trp(1-(1,1-Me2-allyl))][NMeL][Tyr(3-NO2)]))	> 50	> 50	> 50	> 50	> 50	> 50	> 50	26.8 (≈ 32 µg/mL)	26.8 (≈ 32 µg/mL)	26.8 (≈ 32 µg/mL)	–	–	–
C=CC(C)(C)n1cc(C[C@@H]2NC(=O)[C@H](C/C=C/C)NC(=O)[C@H](CC(C)C)NC(=O)[C@H](C[C@H](C)C(=O)N[C@@H](CCCNC(=N)N)C(=O)OC)N(C)C(=O)[C@H](C)NC(=O)[C@H](Cc3ccc(O)c([N+](=O)[O-])c3)NC(=O)[C@H](CC(C)C)N(C)C2=O)c2ccccc21 [Compound 4, ilamycin NJL4] (cyclo(A[NMeGlu(4S-Me)]([Arg-OMe])L[Gly(E-crotyl)][Trp(1-(1,1-Me2-allyl))][NMeL][Tyr(3-NO2)]))	23	> 50	30.6	25.9	26	> 50	35.2	26.4 (≈ 32 µg/mL)	26.4 (≈ 32 µg/mL)	26.4 (≈ 32 µg/mL)	–	–	–
